# Like-named read-outs stand apart in the source and are kept apart here. Where no end group is shown, it is not given here.
# Assays:
# HLA-B*51:01 = HLA-B*51:01 (Homo sapiens, UniProt P01889, A329T/A93T/A95T/C349S/D138N/D201E/D98Y/E187L/E204Q/E69T/G107R/I218V/K202T/L105A/L119W/N104I/Q94N/R106L/R155S/R180L/S101N/S121T/S35A/S48A/V306I/V36M/Y195H/Y91F); assay: HLA-peptide competition binding assay, B*51:01; details: read-out: IC50 nM, target assay B*51:01
# HLA-B*35:01 = HLA-B*35:01 (Homo sapiens, UniProt P01889, A329T/A93T/A95T/C349S/D201E/D98Y/E176V/E187L/E204Q/E69T/I218V/K202T/L119I/Q94N/R155S/R180L/S121R/S35A/S48A/T118I/V127L/V306I/V36M/Y140S/Y91F); assay: HLA-peptide competition binding assay, B*35:01; details: read-out: IC50 nM, target assay B*35:01
# HLA-B*07:02 = HLA-B*07:02 (Homo sapiens, UniProt P01889); assay: HLA-peptide competition binding assay, B*07:02; details: read-out: IC50 nM, target assay B*07:02
# HLA-A*01:01 = HLA-A*01:01 (Homo sapiens, UniProt P04439, A114D/A174V/A182V/D101N/D185E/E176A/E190D/L180R/Q94H/R68K/S129P/T187R/V100A/V91M/W191G); assay: HLA-peptide competition binding assay, A*01:01; details: read-out: IC50 nM, target assay A*01:01
# HLA-B*08:01 = HLA-B*08:01 (Homo sapiens, UniProt P01889, A93T/A95T/D138N/E176V/E187T/K202T/Q94N/R180D/S35A/V36M/Y33D/Y91F); assay: biochemical
# Experimental: The 138 peptides were tested for their capacity to bind their respective HLA class I restricting allele(s) in classical competition assays based on the inhibition of the binding of high affinity radiolabeled ligands to purified major histocompatibility (MHC) molecules, as described in the Methods. In instances where the precise restriction was not available, binding to the most common representative subtype from the same allele family was assayed (e.g., A*02:01 for A02; B*07:02 for B7; A*03:01 for A03, etc.). For epitopes reported to be restricted by multiple alleles, each restriction is shown separately.
# Peptide-MHC affinities were measured using classical competition assays based on the inhibition of binding of a high affinity radiolabeled ligand to purified HLA class I molecules, as previously described. Briefly, 0.1–1 nM of radiolabeled peptide is co-incubated at room temperature with purified MHC in the presence of a cocktail of protease inhibitors. Following a two-day incubation, MHC bound radioactivity is determined by capturing MHC/peptide complexes on W6/32 (anti-HLA class I) mAb coated Lumitrac 600 plates (Greiner Bio-one, Frickenhausen, Germany), and bound cpm measured using the TopCount (Packard Instrument Co., Meriden, CT) microscintillation counter. […] Under the conditions utilized, where [label] < [MHC] and IC50 ≥ [MHC], measured IC50 values are reasonable approximations of true Kd. Each competitor peptide is tested at six different concentrations covering a 100,000-fold range, and in three or more independent experiments. As a positive control, the unlabeled version of the radiolabeled probe is also tested in each experiment.
# HLA-A*02:01 = HLA-A*02:01 (Homo sapiens, UniProt P04439, D140Y/D185E/D98H/E176V/E277Q/G131W/G231S/I119V/I121R/I166T/I218V/L300P/L318F/N151K/N90K/P208A/P217A/Q86G/Q94H/R138H/R169H/T345S); assay: HLA-peptide competition binding assay, A*02:01
# HLA-B*18:01 = HLA-B*18:01 (Homo sapiens, UniProt P01889, A329T/A93T/A95T/C349S/D201E/D54G/D98Y/E176V/E187T/E204Q/E69T/K202T/Q94N/R155S/R180L/S121R/V306I/Y140S/Y195H/Y33H/Y91S); assay: HLA-peptide competition binding assay, B*18:01; details: read-out: IC50 nM, target assay B*18:01
Sequence,IC50 (HLA-B*51:01),IC50 (HLA-B*35:01),IC50 (HLA-B*07:02),IC50 (HLA-A*01:01),IC50 (HLA-B*08:01),"IC50 (HLA-A*02:01; read-out: IC50 nM, target assay A*02:01)","IC50 (HLA-A*02:01; unmodified (WT) insulin peptide, competition binding assay, a dash indicates IC50 >40,000 nM, read-out: A*02:01 binding (IC50 nM) WT)",IC50 (HLA-B*18:01)
LPLLALLAL [LPLLALLAL],1160 nM,12300 nM,610 nM,,,,,
VCGERGFFYT,,,,> 40000 nM,> 40 µM,> 40000 nM,> 40000 nM,626 nM
